Here are results for 3 compounds from patent US20080275093A1, “Diuretic Compounds Comprising Heterocyclic Nitric Oxide Donor Groups, Compositions and Methods of Use” (NitroMed, Inc., priority 2004, published 2008).

SMILES strings stand for the structures.

Take `Cc1c(COC(=O)c2cc(S(N)(=O)=O)c(Cl)cc2N)no[n+]1[O-]` [Example 3, Benzoic acid, 2-amino-5-(aminosulfonyl)-4-chloro-, (4-methyl-5-oxido-1,2,5-oxadiazol-3-yl)methyl ester]: the melting point (as a rule, the temperature of the solid-liquid transition) lay within 169 to 172 °C. In the case of `Cc1c(COC(=O)COC(=O)c2cc(S(N)(=O)=O)c(Cl)cc2NCc2ccco2)no[n+]1[O-]` [Example 2, Benzoic acid, 5-(aminosulfonyl)-4-chloro-2-[(2-furanylmethyl)amino]-, 2-[(4-methyl-5-oxido-1,2,5-oxadiazol-3-yl)methoxy]-2-oxoethyl ester], the melting point lay in the range of 112 to 115 °C. In the case of `Cc1c(COC(=O)c2cc(S(N)(=O)=O)c(Cl)cc2NCc2ccco2)no[n+]1[O-]` [Example 1, Benzoic acid, 5-(aminosulfonyl)-4-chloro-2-[(2-furanylmethyl)amino]-, (4-methyl-5-oxido-1,2,5-oxadiazol-3-yl)methyl ester], the melting point was 182 to 183 °C.
